Experimental data from US10844049B2, “GLP-1R agonists and uses thereof” (QILU REGOR THERAPEUTICS INC., priority 2018, dated 2020).

Biological target: GLP1R (Homo sapiens, UniProt P43220)
Assay: GLP1R cAMP HTRF assay, HEK293/GLP-1R/CRE/Luc (HEK293T cells)
Assay type: cell-based
Conditions: read-out: EC50
How it was run: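 cAMP accumulation via HTRF after 30 min, 37 °C exposure of 1000 receptor-expressing cells/well to compound (0.5% DMSO final) in IBMX (500 μM)/0.1% BSA DPBS.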

GLP1R, sequence (P43220 24-463): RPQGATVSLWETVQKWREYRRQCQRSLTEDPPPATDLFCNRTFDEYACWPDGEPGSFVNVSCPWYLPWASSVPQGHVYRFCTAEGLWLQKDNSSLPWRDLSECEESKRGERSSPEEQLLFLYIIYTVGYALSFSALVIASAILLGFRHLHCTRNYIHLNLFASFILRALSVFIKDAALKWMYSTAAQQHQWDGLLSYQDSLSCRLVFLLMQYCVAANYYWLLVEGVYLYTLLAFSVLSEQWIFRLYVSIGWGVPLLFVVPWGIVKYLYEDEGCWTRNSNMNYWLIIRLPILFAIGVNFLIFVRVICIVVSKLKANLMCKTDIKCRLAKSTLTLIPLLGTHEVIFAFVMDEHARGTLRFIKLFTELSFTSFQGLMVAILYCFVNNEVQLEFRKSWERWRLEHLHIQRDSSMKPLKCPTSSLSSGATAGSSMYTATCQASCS

SMILES	EC50 [nM]
O=C(O)c1ccc2nc(CN3CC=C(c4nc(OCc5ccc(F)cc5F)c(F)cc4F)CC3)n(C[C@@H]3CCO3)c2c1 [Compound 216, (S)-2-((4-(6-(2,4-difluorobenzyloxy)-3,5-difluoropyridin-2-yl)-5,6-dihydropyridin-1(2H)-yl)methyl)-1-(oxetan-2-ylmethyl)-1H-benzo[d]imidazole-6-carboxylic acid]	≤ 15
O=C(O)c1ccc2nc(CN3CCN(c4ccc5c(n4)N(Cc4ccc(Cl)cc4F)CCC5)CC3)n(C[C@@H]3CCO3)c2c1 [Compound 3, (S)-2-((4-(8-(4-chloro-2-fluorobenzyl)-5,6,7,8-tetrahydro-1,8-naphthyridin-2yl)piperazin-1-yl)methyl)-1-(oxetan-2-ylmethyl)-1 h-benzo[d]imidazole-6-carboxylic acid]	> 1000
O=C(O)c1ccc2nc(CN3CC=C(c4cccc(OC5CCCc6cc(Cl)ccc65)n4)CC3)n(C[C@@H]3CCO3)c2c1 (stereo partly drawn) [Compound 60, 2-((6-((6-chloro-1,2,3,4-tetrahydronaphthalen-1-yl)oxy)-3′,6′-dihydro-[2,4′-bipyridin]-1′(2′H)-yl)methyl)-1-(((S)-oxetan-2-yl)methyl)-1H-benzo[d]imidazole-6-carboxylic acid]	≤ 1000
O=C(O)c1ccc2nc(CN3CCC(=O)N(c4cccc(OCc5ccc(Cl)cc5F)n4)CC3)n(C[C@@H]3CCO3)c2c1 [Compound 57]	≤ 1000
COc1ccc(COc2cccc(C3=CCN(Cc4nc5ccc(C(=O)O)cc5n4C[C@@H]4CCO4)CC3)n2)cc1 [Compound 118, (S)-2-((6-((4-methoxybenzyl)oxy)-3′,6′-dihydro-[2,4′-bipyridin]-1′(2H)-yl)methyl)-1-(oxetan-2-ylmethyl)-1H-benzo[d]imidazole-6-carboxylic acid]	≤ 15
O=C(NO)c1ccc2nc(CN3CC=C(c4cccc(OCc5ccc(Cl)cc5F)n4)CC3)n(C[C@@H]3CCO3)c2c1 [Compound 174, (S)-2-((6-((4-chloro-2-fluorobenzyl)oxy)-5′,6′-dihydro-[2,4′-bipyridin]-1′(2′H)-yl)methyl)-N-hydroxy-1-(oxetan-2-ylmethyl)-1H-benzo[d]imidazole-6-carboxamide]	≤ 15
O=C(O)c1ccc2nc(CN3CC=C(c4ccc5c(n4)N(Cc4ccc(Cl)cc4F)C(=O)CO5)CC3)n(C[C@@H]3CCO3)c2c1 [Compound 38, (S)-2-((4-(4-(4-chloro-2-fluorobenzyl)-3-oxo-3,4-dihydro-2 h-pyrido[3,2-b][1,4]oxazin-6-yl)-5,6-dihydropyridin-1(2H)-yl)methyl)-1-(oxetan-2-ylmethyl)-1 h-benzo[d]imidazole-6-carboxylic add]	≤ 1000
N#Cc1ccc(COc2cc(C3=CCN(Cc4nc5ccc(C(=O)O)cc5n4C[C@@H]4CCO4)CC3)ccc2F)c(F)c1 [Compound 204, (S)-2-((4-(3-((4-cyano-2-fluorobenzyl)oxy)-4-fluorophenyl)-3,6-dihydropyridin-1(2H)-yl)methyl)-1-(oxetan-2-ylmethyl)-1H-benzo[d]imidazole-6-carboxylic acid]	≤ 15
O=C(O)c1ccc2nc(CN3CCC(c4ccc5ccn(Cc6ccc(Cl)cc6F)c5c4)CC3)n(C[C@@H]3CCO3)c2c1 [Compound 26, (S)-2-((4-(1-(4-chloro-2-fluorobenzyl)-1 h-indol-6-yl)piperidin-1-yl)methyl)-1-(oxetan-2-ylmethyl)-1 h-benzo[d]imidazole-6-carboxylic acid]	> 1000
O=C(O)c1ccc2nc(CN3CCC(F)(c4cccc(OCc5ccc(Cl)cc5F)n4)CC3)n(C[C@@H]3CCO3)c2c1 [Compound 67, (S)-2-((4-(6-(4-chloro-2-fluorobenzyloxy)pyridin-2-yl)-4-fluoropiperidin-1-yl)methyl)-1-(oxetan-2-ylmethyl)-1H-benzo[d]imidazole-6-carboxylic acid]	≤ 150
O=C(O)c1ccc2nc(CN3CCN(c4ncnc(OCc5ccc(Cl)cc5F)n4)CC3)n(C[C@@H]3CCO3)c2c1 [Compound 167, (S)-2-((4-(4-((4-chloro-2-fluorobenzyl)oxy)-1,3,5-triazin-2-yl)piperazin-1-yl)methyl)-1-(oxetan-2-ylmethyl)-1H-benzo[d]imidazole-6-carboxylic acid]	≤ 150
O=C(O)c1ccc2nc(CN3CCN(c4ccc(F)c(OCc5ccc(Cl)cc5F)c4)CC3)n(C[C@@H]3CCO3)c2c1 [Compound 184, (S)-2-((4-(3-((4-chloro-2-fluorobenzyl)oxy)-4-fluorophenyl)piperazin-1-yl)methyl)-1-(oxetan-2-ylmethyl)-1H-benzo[d]imidazole-6-carboxylic acid]	≤ 15
N#Cc1ccc(COc2nccc(C3=CCN(Cc4nc5ccc(C(=O)O)cc5n4C[C@@H]4CCO4)CC3)n2)c(F)c1 [Compound 177, (S)-2-((4-(2-((4-cyano-2-fluorobenzyl)oxy)pyrimidin-4-yl)-5,6-dihydropyridin-1(2H)-yl)methyl)-1-(oxetan-2-ylmethyl)-1H-benzo[d]imidazole-6-carboxylic add]	≤ 15
O=C(O)c1ccc2nc(CN3CC=C(c4ccc5c(n4)N(CCc4cccc(Cl)c4)CCO5)CC3)n(C[C@@H]3CCO3)c2c1 [Compound 37, (S)-2-((4-(4-(3-chlorophenethyl)-3,4-dihydro-2 h-pyrido[3,2-b][1,4]oxazin-6-yl)-5,6-dihydropyridin-1(2H)-yl)methyl)-1-(oxetan-2-ylmethyl)-1 h-benzo[d]imidazole-6-carboxylic acid]	> 1000
O=C(O)c1ccc2nc(CN3CC=C(c4cccc(NC5CCCc6cc(Cl)ccc65)n4)CC3)n(C[C@@H]3CCO3)c2c1 (stereo partly drawn) [Compound 104, 2-((6-((6-chloro-1,2,3,4-tetrahydronaphthalen-1-yl)amino)-36′-dihydro-[2,4′-bipyridin]-1′(2′H)-yl)methyl)-1-(((S)-oxetan-2-yl)methyl)-1H-benzo[d]imidazole-6-carboxylic add]	≤ 1000
O=C(O)c1ccc2nc(CN3CC=C(c4cc(OCc5ccc(Cl)cc5F)ccn4)CC3)n(C[C@@H]3CCO3)c2c1 [Compound 30, (S)-2-((4-((4-chloro-2-fluorobenzyl)oxy)-3′,6′-dihydro-[2,4′-bipyridin]-1′(2′H)-yl)methyl)-1-(oxetan-2-ylmethyl)-1 h-benzo[d]imidazole-6-carboxylic add]	≤ 150
O=C(O)c1ccc2nc(CN3CCCN(c4cccc(OCc5ccc(Cl)cc5F)n4)CC3)n(C[C@@H]3CCO3)c2c1 [Compound 15, (S)-2-((4-(6-(4-chloro-2-fluorobenzyloxy)pyridin-2-yl)-1,4-diazepan-1-yl)methyl)-1-(oxetan-2-ylmethyl)-1 h-benzo[d]imidazole-6-carboxylic acid]	≤ 150
O=C(O)c1ccc2nc(CN3CCN(c4cc(F)cc(OCc5ccc(Cl)cc5F)c4)CC3)n(C[C@@H]3CCO3)c2c1 [Compound 185, (S)-2-((4-(3-((4-chloro-2-fluorobenzyl)oxy)-5-fluorophenyl)piperazin-1-yl)methyl)-1-(oxetan-2-ylmethyl)-1H-benzo[d]imidazole-6-carboxylic acid]	≤ 15
O=C(O)c1ccc2nc(CN3CC=C(c4cccc(OCc5ccccn5)n4)CC3)n(C[C@@H]3CCO3)c2c1 [Compound 159, (S)-1-(oxetan-2-ylmethyl)-2-((6-(pyridin-2-ylmethoxy)-5′,6′-dihydro-[2,4′-bipyridin]-1′(2′H)-yl)methyl)-1H-benzo[d]imidazole-6-carboxylic acid]	≤ 150
O=C(O)c1ccc2nc(CN3CCN(c4cc(OCc5ccc(Cl)cc5F)ccc4F)CC3)n(C[C@@H]3CCO3)c2c1 [Compound 186, (S)-2-((4-(5-(4-chloro-2-fluorobenzyloxy)-2-fluorophenyl)piperazin-1-yl)methyl)-1-(oxetan-2-ylmethyl)-1H-benzo[d]imidazole-6-carboxylic acid]	≤ 150
O=C(O)c1ccc2nc(CN3CCN(c4cc(F)c(F)c(OCc5ccc(Cl)cc5F)c4)CC3)n(C[C@@H]3CCO3)c2c1 [Compound 187, (S)-2-((4-(3-(4-chloro-2-fluorobenzyloxy)-4,5-difluorophenyl)piperazin-1-yl)methyl)-1-(oxetan-2-ylmethyl)-1H-benzo[d]imidazole-6-carboxylic acid]	≤ 15
O=C(O)c1ccc2nc(CN3CCC(N4Cc5ccccc5N(CCc5ccc(Cl)cc5F)C4=O)CC3)n(C[C@@H]3CCO3)c2c1 [Compound 53, (S)-2-((4-(1-(4-chloro-2-fluorophenethyl)-2-oxo-1,4-dihydroquinazolin-3(2H)-yl)piperidin-1-yl)methyl)-1-(oxetan-2-ylmethyl)-1H-benzo[d]imidazole-6-carboxylic acid]	> 1000
O=C(O)c1ccc2nc(CN3CC=C(c4cccc(CCc5ccc(Cl)cc5F)n4)CC3)n(C[C@@H]3CCO3)c2c1 [Compound 113, (S)-2-((6-(4-chloro-2-fluorophenethyl)-3′,6′-dihydro-[2,4′-bipyridin]-1′(2′H)-yl)methyl)-1-(oxetan-2-ylmethyl)-1H-benzo[d]imidazole-6-carboxylic acid]	≤ 150
O=C(O)c1ccc2nc(CN3CC=C(c4cccc(OCc5ccc(Cl)cc5F)n4)CC3)n(Cc3ncco3)c2c1 [Compound 72, 2-((6-((4-chloro-2-fluorobenzyl)oxy)-3′,6′-dihydro-[2,4′-bipyridin]-1′(2′H)-yl)methyl)-1-(oxazol-2-ylmethyl)-1H-benzo[d]imidazole-6-carboxyli acid]	≤ 15
O=C(O)c1ccc2nc(CN3CC=C(c4ccc(=O)n(CCc5ccc(Cl)cc5F)n4)CC3)n(C[C@@H]3CCO3)c2c1 [Compound 20, (S)-2-((4-(1-(4-chloro-2-fluorophenethyl)-6-oxo-1,6-dihydropyridazin-3-yl)-5,6-dihydropyridin-1(2H)-yl)methyl)-1-(oxetan-2-ylmethyl)-1 h-benzo[d]imidazole-6-carboxylic acid]	≤ 1000
O=C(O)c1ccc2nc(CN3CC=C(c4cccc(OCc5ccccc5Cl)n4)CC3)n(C[C@@H]3CCO3)c2c1 [Compound 136, (S)-2-((6-((2-chlorobenzyl)oxy)-3′,6′-dihydro-[2,4′-bipyridin]-1′(2′H)-yl)methyl)-1-(oxetan-2-ylmethyl)-1H-benzo[d]imidazole-6-carboxylic acid]	≤ 15
